Measured values published in ChEMBL document CHEMBL2062510, “Acylphloroglucinols from Elaphoglossum crassipes: antidepressant-like activity of crassipin A” (J Nat Prod, 2012).
The source made the active and inactive calls. No cut-off for these calls is given here.

Tests used:
[1] = test system: Mus musculus; assay: Toxicity in CF1 mouse assessed as change in number of grooming at 15 mg/kg, po measured after 60 mins by open-field test; assay type: organism-based; parameters: dose 15 mg/kg, route oral; details: in vivo, 1 h
[2] = test system: Mus musculus; assay: Antidepressant activity in CF1 mouse assessed as reduction in immobility at 15 mg/kg, po measured after 60 mins by forced-swimming test; assay type: functional, organism-based; parameters: dose 15 mg/kg
[3] = test system: Mus musculus; assay: Toxicity in CF1 mouse assessed as change in number of crossing at 15 mg/kg, po measured after 60 mins by open-field test; assay type: organism-based; parameters: dose 15 mg/kg, route oral; details: in vivo, 1 h
[4] = test system: Mus musculus; assay: Toxicity in CF1 mouse assessed as change in number of rearing at 15 mg/kg, po measured after 60 mins by open-field test; assay type: organism-based; parameters: dose 15 mg/kg, route oral; details: in vivo, 1 h
[5] = test system: Mus musculus; assay: Antidepressant activity in CF1 mouse assessed as reduction in immobility at 20 mg/kg, po measured after 60 mins by forced-swimming test; assay type: functional, organism-based; parameters: dose 20 mg/kg

| SMILES | Activity [1] | Activity [2] | Activity [3] | Activity [4] | Activity [5] |
| --- | --- | --- | --- | --- | --- |
| CCCC(=O)C1=C(O)[C@](C)(C/C=C(\C)CCC=C(C)C)C(O)=C(Cc2c(O)c3c(c(C(=O)CCC)c2O)OC(C)(C)C=C3)C1=O [CRASSIPIN A] | Non-toxic | Active | Non-toxic | Non-toxic | – |
| CN(C)CCCN1c2ccccc2CCc2ccccc21 | – | – | – | – | Active |
| CC/C=C(\OC(C)=O)C1=C(OC(C)=O)[C@](C)(C/C=C(\C)CCC=C(C)C)C(OC(C)=O)=C(Cc2c(OC(C)=O)c3c(c(C(=O)CCC)c2OC(C)=O)OC(C)(C)C=C3)C1=O | Non-toxic | Active | Non-toxic | Non-toxic | – |
